Tests used:
Type in all cases: cell-based
[1] = molecular target: T1, CYP1a2 (Mus musculus, UniProt P00186); assay: P450-Glo luminescence assay in transfected Hana3A cells; settings: CD293 medium, 3 h, 37 °C; against mock transformant
T1 construct: cDNA from mouse olfactory epithelium library, pCI vector, expressed in Hana3A cells
T1 sequence (P00186 2-513): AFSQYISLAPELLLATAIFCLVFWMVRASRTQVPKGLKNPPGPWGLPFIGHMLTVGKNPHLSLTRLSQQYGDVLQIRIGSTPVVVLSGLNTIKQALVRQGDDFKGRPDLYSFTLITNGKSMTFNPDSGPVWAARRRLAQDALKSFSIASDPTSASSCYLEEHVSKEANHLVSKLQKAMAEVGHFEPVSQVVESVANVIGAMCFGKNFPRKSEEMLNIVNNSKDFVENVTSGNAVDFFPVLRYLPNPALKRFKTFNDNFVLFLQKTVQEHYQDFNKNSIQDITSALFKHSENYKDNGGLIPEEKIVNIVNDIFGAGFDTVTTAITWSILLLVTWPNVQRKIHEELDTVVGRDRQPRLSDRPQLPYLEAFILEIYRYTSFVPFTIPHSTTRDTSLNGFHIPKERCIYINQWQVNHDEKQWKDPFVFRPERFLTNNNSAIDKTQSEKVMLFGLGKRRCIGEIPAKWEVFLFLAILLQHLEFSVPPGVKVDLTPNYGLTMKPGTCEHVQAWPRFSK

[2] = molecular target: T2, MOR161-2 (Mus musculus, UniProt Q7TRE6); assay: CRE-luciferase reporter assay in Hana3A cells; settings: no CYP co-expressed; RTP1S and M3-R; 3 h, 37 °C; agonist
T2 construct: gene Or8b12; Hana3A cells with RTP1S and M3-R
T2 sequence (Q7TRE6 1-310): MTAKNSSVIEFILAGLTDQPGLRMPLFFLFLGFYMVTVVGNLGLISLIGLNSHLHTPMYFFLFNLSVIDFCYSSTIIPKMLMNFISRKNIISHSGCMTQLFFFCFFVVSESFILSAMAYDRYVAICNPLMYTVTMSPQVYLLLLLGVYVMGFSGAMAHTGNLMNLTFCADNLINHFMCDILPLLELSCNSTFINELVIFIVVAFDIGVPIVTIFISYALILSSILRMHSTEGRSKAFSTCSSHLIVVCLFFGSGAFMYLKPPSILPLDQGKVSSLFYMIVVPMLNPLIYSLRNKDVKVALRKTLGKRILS

[3] = molecular target: T3, MOR164-2 (Mus musculus, UniProt Q7TRB9); assay: CRE-luciferase reporter assay in Hana3A cells; settings: no CYP co-expressed; RTP1S and M3-R; 3 h, 37 °C; agonist
T3 construct: gene Or8b56; ORF from mouse genomic DNA, N-terminal Rho-tag, pCI; Hana3A cells with RTP1S and M3-R
T3 sequence (Q7TRB9 1-317): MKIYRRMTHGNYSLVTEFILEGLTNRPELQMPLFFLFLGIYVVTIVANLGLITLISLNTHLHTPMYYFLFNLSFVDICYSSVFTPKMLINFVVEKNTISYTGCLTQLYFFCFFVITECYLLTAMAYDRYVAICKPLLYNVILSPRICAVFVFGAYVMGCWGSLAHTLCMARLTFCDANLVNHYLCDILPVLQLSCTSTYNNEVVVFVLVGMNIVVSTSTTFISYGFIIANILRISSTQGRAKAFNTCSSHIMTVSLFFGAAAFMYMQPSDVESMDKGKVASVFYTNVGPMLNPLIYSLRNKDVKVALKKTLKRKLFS

[4] = molecular target: T4, MOR123-2 (Mus musculus, UniProt E9Q8M2); assay: CRE-luciferase reporter assay in Hana3A cells; settings: no CYP co-expressed; RTP1S and M3-R; 3 h, 37 °C; agonist
T4 construct: gene Or10aa3; ORF from mouse genomic DNA, N-terminal Rho-tag, pCI; Hana3A cells with RTP1S and M3-R
T4 sequence (E9Q8M2 1-312): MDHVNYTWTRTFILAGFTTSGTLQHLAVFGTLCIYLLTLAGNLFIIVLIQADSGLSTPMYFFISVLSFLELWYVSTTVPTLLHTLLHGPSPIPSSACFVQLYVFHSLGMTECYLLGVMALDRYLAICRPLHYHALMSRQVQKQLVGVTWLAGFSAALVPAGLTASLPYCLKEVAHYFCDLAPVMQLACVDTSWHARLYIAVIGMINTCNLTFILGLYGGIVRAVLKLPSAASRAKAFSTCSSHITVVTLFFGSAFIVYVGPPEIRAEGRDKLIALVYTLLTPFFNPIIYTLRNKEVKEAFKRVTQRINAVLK

Compound | P450-Glo luminescence assay in transfected Hana3A cells [1] | CRE-luciferase reporter assay in Hana3A cells [2] | CRE-luciferase reporter assay in Hana3A cells [3] | CRE-luciferase reporter assay in Hana3A cells [4]
COc1ccc2nc(C3=NC(C(=O)O)CS3)sc2c1 (stereo not shown) [luciferin-ME] | Functional expression of CYP1a2 in Hana3A cells was confirmed by the P450-Glo assay using luciferin-ME | – | – | –
O=C(O)c1ccccc1O [salicylic acid] | – | Potential intermediates are methyl benzoate and salicylate, and indeed MOR161-2 responded to both of them. | – | –
CC(=O)c1ccccc1 [acetophenone] | – | We compared the response of MOR161-2 against acetophenone and methyl salicylate. | We observed effects of CYPs on the responses of MOR123-2, MOR161-2 and MOR164-2. | We observed effects of CYPs on the responses of MOR123-2, MOR161-2 and MOR164-2.
COC(=O)c1ccccc1O [methyl salicylate] | – | MOR161-2 showed a larger response to methyl salicylate than acetophenone. | – | –
COC(=O)c1ccccc1 [methyl benzoate] | – | Potential intermediates are methyl benzoate and salicylate, and indeed MOR161-2 responded to both of them. | – | –

From paper PMC5579037, “Modification of the response of olfactory receptors to acetophenone by CYP1a2” (Scientific Reports, 2017)
